Biological target: T1, hFXR (Homo sapiens, UniProt Q96RI1)
T1 construct: expressed in transfected cells; host or cells: CV-1 cells
T1 sequence (Q96RI1 1-486): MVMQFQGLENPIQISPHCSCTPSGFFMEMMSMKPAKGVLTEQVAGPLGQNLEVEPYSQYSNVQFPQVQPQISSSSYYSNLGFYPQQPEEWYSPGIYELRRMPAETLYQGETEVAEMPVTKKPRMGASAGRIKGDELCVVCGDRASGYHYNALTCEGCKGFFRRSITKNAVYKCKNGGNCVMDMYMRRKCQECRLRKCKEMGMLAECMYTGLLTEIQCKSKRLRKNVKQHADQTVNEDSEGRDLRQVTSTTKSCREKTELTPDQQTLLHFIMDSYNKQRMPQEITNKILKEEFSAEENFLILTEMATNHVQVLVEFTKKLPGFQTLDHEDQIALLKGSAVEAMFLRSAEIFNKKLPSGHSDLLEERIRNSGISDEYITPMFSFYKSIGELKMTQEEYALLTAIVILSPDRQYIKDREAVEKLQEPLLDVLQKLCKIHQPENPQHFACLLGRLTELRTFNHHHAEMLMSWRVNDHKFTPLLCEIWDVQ
T1 sequence (P19793 1-462 partner): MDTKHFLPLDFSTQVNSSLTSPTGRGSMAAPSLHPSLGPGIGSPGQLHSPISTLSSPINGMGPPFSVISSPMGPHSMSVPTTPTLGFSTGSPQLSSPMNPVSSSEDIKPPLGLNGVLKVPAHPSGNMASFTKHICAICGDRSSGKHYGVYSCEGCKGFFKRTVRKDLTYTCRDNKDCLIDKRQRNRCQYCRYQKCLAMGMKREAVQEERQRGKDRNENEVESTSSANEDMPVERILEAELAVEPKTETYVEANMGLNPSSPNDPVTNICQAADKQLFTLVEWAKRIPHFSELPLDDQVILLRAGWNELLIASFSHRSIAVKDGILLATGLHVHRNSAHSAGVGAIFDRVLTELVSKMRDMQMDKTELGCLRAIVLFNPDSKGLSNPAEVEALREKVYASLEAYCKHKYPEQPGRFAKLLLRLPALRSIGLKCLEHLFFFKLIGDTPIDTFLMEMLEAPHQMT
Assay: In Vitro FXR Assay (TK): TK-ECRE-luc reporter in transfected CV-1 cells
Type: cell-based
Conditions: 18 hrs incubation, luminescence
Procedure, shortened: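 Transactivation is scored as luminescence in CV-1 cell lysates. The cells, co-transfected with hFXR/hRXR and a TK-ECRE-luc reporter, are exposed to DMSO-diluted compounds for 18 h.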

Row | Compound | EC50
1 | COc1ccc([C@H]2CC[C@H](CN(c3cc(-c4cnc(C(C)C)s4)ccn3)C(=O)[C@H]3CC[C@H](OC(=O)NC(C)C)CC3)CC2)cc1C [Compound 2.47, trans-4-((4-(2-Isopropylthiazol-5-yl)pyridin-2-yl)((trans-4-(4-methoxy-3-methylphenyl)cyclohexyl)methyl)carbamoyl)cyclohexyl isopropylcarbamate] | ≤ 50 nM
2 | COc1ccc(C23CCC(CN(c4cccc(-c5cnn(C6(C)CCC6)c5)n4)C(=O)[C@H]4CC[C@H](OC(=O)N5CC(O)C5)CC4)(CC2)CC3)cc1C [Compound 25.24, 4-(((4-(4-Methoxy-3-methylphenyl)bicyclo[2.2.2]octan-1-yl)methyl)(6-(1-(1-methylcyclobutyl)-1H-pyrazol-4-y)pyridin-2-yl)carbamoyl)cyclohexyl trans-3-hydroxyazetidine-1-carboxylate] | ≤ 50 nM
3 | COCCOC(=O)N[C@H]1CC[C@H](C(=O)N(C[C@H]2CC[C@H](c3ccc(OC)c(C)c3)CC2)c2cccc(-c3cnn(C(C)C)c3)c2)CC1 [Compound 6.04, 2-Methoxyethyl (trans-4-((3-(1-isopropyl-1H-pyrazol-4-yl)phenyl)((trans-4-(4-methoxy-3-methylphenyl)cyclohexyl)meth-yl)carbamoyl)cyclohexyl)carbamate] | ≤ 50 nM
4 | CCc1nc(-c2ccnc(N(C[C@H]3CC[C@H](c4ccc(OC)c(C)c4)CC3)C(=O)[C@H]3CC[C@H](OC(=O)N4CC(O)C4)CC3)c2)co1 [Compound 2.36, trans-4-((4-(2-Ethyloxazol-4-yl)pyridin-2-yl)((trans-4-(4-methoxy-3-methylphenyl)cyclohexyl)methyl)carbamoyl)cyclohexyl 3-hydroxyazetidine-1-carboxylate] | ≤ 50 nM
5 | COc1ccc(C23CCC(CN(c4cc(-c5cnn(C(C)C)c5)ccn4)C(=O)[C@H]4CC[C@H](OC(=O)N5CC(C(C)C)C5)CC4)(CC2)CC3)cc1C [Compound 23.12, 4-((4-(1-Isopropyl-1H-pyrazol-4-yl)pyridin-2-yl)((4-(4-methoxy-3-methylphenyl)bicyclo[2.2.2]oc-tan-1-yl)methyl)carbamoyl)cyclo-hexyl trans-3-isopropyl-azetidine-1-carboxylate] | ≤ 50 nM
6 | COc1ccc([C@H]2CC[C@H](CN(c3cccc(-c4cnn(C(C)C)c4)c3)C(=O)[C@H]3CC[C@H](NC(=O)C4CC(=O)C4)CC3)CC2)cc1C [Compound 14.01, trans-N-(3-(1-Isopropyl-1H-pyrazol-4-yl)phenyl)-N-((trans-4-(4-methoxy-3-methylphenyl)cyclohexyl)methyl)-4-(3-oxocyclobutanecarboxamido)cyclo-hexanecarboxamide] | ≤ 50 nM
7 | COc1ccc(C23CCC(CN(c4cc(-c5cnn(C(F)(F)F)c5)ccn4)C(=O)[C@H]4CC[C@H](OC(=O)N5CC(O)C5)CC4)(CC2)CC3)cc1C [Compound 4.19, 4-(((4-(4-Methoxy-3-methylphenyl)bicyclo [2.2.2]octan-1-yl)methyl) (4-(1-(trifluoromethyl)-1H-pyrazol-4-yl)pyridin-2-yl)carbamoyl) cyclohexyl 3-hydroxyazetidine-trans-1-carboxylate] | ≤ 50 nM
8 | COc1ccc(C23CCC(CN(C(=O)N4CCC(OC(=O)N5CC(O)C5)CC4)c4cc(-c5cnn(C(C)C)c5)ccn4)(CC2)CC3)cc1C [Compound 27, 1-((4-(1-Isopropyl-1H-pyrazol-4-yl)pyridin-2-yl)((4-(4-methoxy-3-methylphenyl)bicyclo[2.2.2]octan-1-yl)methyl)carbamoyl)piperidin-4-yl 3-hydroxyazetidine-1-carboxylate] | ≤ 50 nM
9 | COc1ccc([C@H]2CC[C@H](CN(c3cc(-c4cnc(C(C)C)s4)ccn3)C(=O)[C@H]3CC[C@H](OC(=O)NCC(C)(C)O)CC3)CC2)cc1C [Compound 2.10, trans-4-((4-(2-Isopropylthiazol-5-yl)pyridin-2-yl)((trans-4-(4-methoxy-3-methylphenyl)cyclohexyl)methyl)carbamoyl) cyclohexyl(2-hydroxy-2-methylpropyl)carbamate] | ≤ 50 nM
10 | COc1ncc([C@H]2CC[C@H](CN(c3cc(-c4cnn(C(C)C)c4)ccn3)C(=O)[C@H]3CC[C@H](OC(=O)N4CCN(C)CC4)CC3)CC2)cc1C [Compound 1.05, trans-4-((4-(1-Isopropyl-1H-pyrazol-4-yl)pyridin-2-yl)(((trans)-4-(6-methoxy-5-methylpyridin-3-yl)cyclohexyl)methyl)carbamoyl) cyclohexyl 4-methylpiperazine-1-carboxylate] | 50 to 1000 nM
11 | COc1ccc(C23CCC(CN(c4cc(-c5cnn(C(C)C)c5)ccn4)C(=O)[C@H]4CC[C@H](OC(=O)N5CC(OC)C5)CC4)(CC2)CC3)cc1C [Compound 4.47, 4-((4-(1-Isopropyl-1H-pyrazol-4-yl)pyridin-2-yl) ((4-(4-methoxy-3-methylphenyl)bicyclo [2.2.2]octan-1-yl)methyl)carbamoyl)(trans-cyclohexyl) 3-methoxyazetidine-1-carboxylate] | ≤ 50 nM
12 | COc1ccc(C23CCC(CN(c4ccc(F)c(-c5cnn(C(C)C)c5)c4)C(=O)[C@H]4CC[C@H](OC(=O)N5CC(CS(C)(=O)=O)C5)CC4)(CC2)CC3)cc1C [Compound 25.10, 4-((4-Fluoro-3-(1-isopropyl-1H-pyrazol-4-yl)phenyl)((4-(4-methoxy-3-methylphenyl)bicyclo[2.2.2]octan-1-yl)methyl)carbamoyl)cyclohexyl trans-3-((methylsulfonyl)methyl)azetidine-1-carboxylate] | ≤ 50 nM
13 | COc1ccc(C23CCC(CN(c4cc(-c5cnn(C(C)C)c5)ccn4)C(=O)[C@H]4CC[C@H](OC(=O)N5CC(O)C5)CC4)(CC2)CC3)nc1C [Compound 26.20, 4-((4-(1-Isopropyl-1H-pyrazol-4-yl)pyridin-2-yl)((4-(5-methoxy-6-methylpyridin-2-yl)bicyclo[2.2.2]octan-1-yl)methyl)carbamoyl)cyclohexyl trans-3-hydroxyazetidine-1-carboxylate] | ≤ 50 nM
14 | COc1ncc([C@H]2CC[C@H](CN(c3cc(-c4cnn(C(C)C)c4)ccn3)C(=O)[C@H]3CC[C@H](OC(=O)N4CC(N(C)C)C4)CC3)CC2)cc1C [Compound 1.04, trans-4-((4-(1-Isopropyl-1H-pyrazol-4-yl)pyridin-2-yl)(((trans)-4-(6-methoxy-5-methylpyridin-3-yl)cyclohexyl)methyl)carbamoyl) cyclohexyl 3-(dimethylamino)azetidine-1-carboxylate] | ≤ 50 nM
15 | CCCC1CN(C(=O)O[C@H]2CC[C@H](C(=O)N(CC34CCC(c5ccc(OC)c(C)c5)(CC3)CC4)c3cc(-c4cnn(C(C)C)c4)ccn3)CC2)C1 [Compound 4.55, 4-((4-(1-Isopropyl-1H-pyrazol-4-yl)pyridin-2-yl) ((4-(4-methoxy-3-methylphenyl)bicyclo [2.2.2]octan-1-yl)methyl)carbamoyl)cyclohexyl trans-3-propylazetidine-1-carboxylate] | ≤ 50 nM
16 | COc1ccc(C23CCC(CN(c4cccc(-c5nnc(C6CC6)o5)c4)C(=O)[C@H]4CC[C@H](OC(=O)N5CC(O)C5)CC4)(CC2)CC3)cc1C [Compound 4.32, 4-((3-(5-Cyclopropyl-1,3,4-oxadiazol-2-yl)phenyl)((4-(4-methoxy-3-methylphenyl)bicyclo [2.2.2]octan-1-yl)methyl)carbamoyl)cyclohexyl trans-3-hydroxyazetidine-1-carboxylate] | ≤ 50 nM
17 | COc1ccc(C23CCC(CN(c4ccc(F)c(-c5cnn(C(C)C)c5)c4)C(=O)[C@H]4CC[C@H](OC(=O)N5CC(O)C5)CC4)(CC2)CC3)cc1C [Compound 26.03, 4-((4-Fluoro-3-(1-isopropyl-1H-pyrazol-4-yl)phenyl)((4-(4-methoxy-3-methylphenyl)bicyclo[2.2.2]octan-1-yl)methyl)carbamoyl)(trans-cyclohexyl) 3-hydroxyazetidine-1-carboxylate] | ≤ 50 nM
18 | COc1ccc([C@H]2CC[C@H](CN(c3cccc(-c4cnn(C(C)C)c4)c3)C(=O)[C@H]3CC[C@H](OC(=O)NCC(C)(C)O)CC3)CC2)cc1C [Compound 5.12, trans-4-((3-(1-Isopropyl-1H-pyrazol-4-yl)phenyl)((trans-4-(4-methoxy-3-methylphenyl)cyclohexyl)methyl)carbamoyl)cyclohexyl (2-hydroxy-2-methylpropyl)carbamate] | ≤ 50 nM
19 | COc1ccc([C@H]2CC[C@H](CN(c3cc(-c4cc(C5CC5)no4)ccn3)C(=O)[C@H]3CC[C@H](OC(=O)N4CC(O)C4)CC3)CC2)cc1C [Compound 2.38, trans-4-((4-(3-Cyclopropylisoxazol-5-yl)pyridin-2-yl)((trans-4-(4-methoxy-3-methylphenyl)cyclohexyl)methyl)carbamoyl)cyclohexyl 3-hydroxyazetidine-1-carboxylate] | ≤ 50 nM
